The IC50 is the concentration that inhibits the measured activity by half.

Data set [1] relates to P-gp. Description: P-gp inhibition, calcein assay in P388/dx cells. The class given is in vitro ADME. The settings on record: mouse, P388/dx cells over-expressing murine mdr1a/b, probe calcein. As for the experimental part:
P388 and P388/dx cells. For testing P-gp inhibition, the murine monocytic leukemia cell line P388/dx over-expressing murine mdr1a/b and the corresponding parental cell line P388 were used. Both cell lines were kindly provided by D. Ballinari (Pharmacia & Upjohn, Milano, Italy). The cells were cultured under standard cell culture conditions with an RPMI 1640 medium supplemented with 10% FCS, 2 mM of glutamine, […] of β-mercaptoethanol, 100 U/mL of penicillin, and 100 µg/mL of streptomycin sulfate. For maintaining P-gp expression, the culture medium for P388/dx was supplemented with 0.43 µM of doxorubicin. One day before the assay, both cell lines were fed with a doxorubicin-free culture medium.
P-gp inhibition was assessed with the calcein assay in P388/dx cells as described previously. Inhibition of P-gp increases intracellular calcein fluorescence in these cells. Each venetoclax concentration (0.005–50 µM) was tested in octuplet, and the experiment was performed in quadruplicate.

Data set [2] deals with T1, BCRP (Homo sapiens, UniProt Q9UNQ0).
T1 construct: expressed in transfected cells; host or cells: MDCKII-BCRP (gift of A. H. Schinkel and P. Borst)
Description: BCRP inhibition, flow cytometric pheophorbide A assay in MDCKII-BCRP cells. The format is in vitro ADME. From the text:
MDCKII cells. The transporter over-expressing cell lines MDCKII-MDR1 [5], MDCKII-MRP2 [6], and MDCKII-BCRP [7] and the corresponding parental cell line MDCKII were used to assess the sensitivity of cells with and without P-gp, multidrug resistance-associated protein 2 (MRP2/ABCC2), or BCRP expression. Moreover, MDCKII-BCRP cells were used to assess BCRP inhibition by venetoclax. MDCKII over-expressing cell lines were kindly provided by A. H. Schinkel and P. Borst (Amsterdam, The Netherlands). The parental cell line MDCKII (available at ATCC, Manassas, VA, USA) was used as a control. The cells were cultured in Dulbecco’s Modified Eagle’s Medium (DMEM) containing 10% FCS, 2 mM of glutamine, 100 U/mL of penicillin, and 100 µg/mL of streptomycin sulfate.
Flow cytometric BCRP inhibition assays were conducted in control (MDCKII) and BCRP over-expressing cells (MDCKII-BCRP) using PhA as a fluorescent BCRP substrate as described and validated previously. Inhibition of BCRP leads to an increase in intracellular PhA concentrations. Each experiment was performed in triplicate. Venetoclax was tested from 0.1 up to 100 µM.
In general terms: A flow cytometer gives signals particle by particle.

Data set [3] addresses T2, OATP1B3 (Homo sapiens, UniProt Q9NPD5).
T2 construct: expressed in transfected cells; host or cells: HEK293 (HEK-OATP1B3; gift of D. Keppler)
As to the kind of experiment: OATP1B3 inhibition, 8-FcA uptake in HEK-OATP1B3 cells. The class given is in vitro ADME. As for the experimental part:
HEK293 cells. For assessing inhibition of OATP1B1 and OATP1B3, the human embryonic kidney cell line HEK293 stably transfected with OATP1B1 (HEK-OATP1B1), OATP1B3 (HEK-OATP1B3), or the empty control vector (HEK293-VCG418) were used. Cells were cultured under standard cell culture conditions with DMEM supplemented with 10% FCS, 2 mM of glutamine, 100 U/mL of penicillin, 100 µg/mL of streptomycin sulfate, and 800 µg/mL of G418 to maintain over-expression. Cells were kindly provided by D. Keppler (German Cancer Research Centre, Heidelberg, Germany).
Inhibition of OATP1B1 and OATP1B3 was analyzed in HEK-OATP1B1 and HEK-OATP1B3 cells by quantifying the uptake of the fluorescent substrate 8-FcA by flow cytometry as described previously. HEK293-VCG418 cells were used as a control. Inhibition of OATPs leads to a reduced uptake of 8-FcA into the cells. Each experiment was performed at least in triplicate, and venetoclax was tested from 0.05 up to 100 µM.

The target in data set [4] is T3, CYP3A4 (Homo sapiens, UniProt P08684).
T3 construct: purchased Becton Dickinson Biosciences (Heidelberg, Germany)
As to the kind of experiment: CYP3A4 inhibition, CYP3A4/BFC High Throughput Inhibitor Screening Kit. The class given is in vitro ADME. The settings on record: recombinant CYP, fluorogenic substrate. As for the experimental part:
Inhibition studies for CYP2B6, CYP2D6, CYP2C19 and CYP3A4 were performed with the CYP2B6/EFC, CYP2D6/AMMC, the CYP2C19/CEC, and the CYP3A4/BFC High Throughput Inhibitor Screening Kit according to the manufacturer’s instructions. The kits contain the respective recombinant CYP and fluorogenic substrates, which are blocked dyes emitting a fluorescence signal when cleaved by the enzyme. For testing CYP1A2 inhibition, the P450-Glo CYP1A2 Screening System was used according to the manufacturer’s instructions. The kit contains the luminogenic CYP1A2 substrate luciferin-ME, which is converted by CYP1A2 into luciferin-generating light when incubated with the luciferin detection reagent of the kit. Eight concentrations of venetoclax in duplicates (0.009–20 µM) were tested in the fluorescence assays, and eight concentrations in triplicate (0.05–100 µM) were tested for the luminogenic assay. Each experiment was conducted in triplicate.

Data set [5] can be described thus: Growth inhibition assay in L-MDR1 cells. The class given is cell-based, porcine. The settings on record: pig, L-MDR1 cells (LLC-PK1 over-expressing human ABCB1/P-gp). As for the experimental part: LLC-PK1 and L-MDR1 cells. […] L-MDR1 cells were kindly provided by A. H. Schinkel (The Netherlands Cancer Institute, Division of Experimental Therapy, Amsterdam, The Netherlands). The cells were cultured under standard cell culture conditions with medium M199 supplemented with 10% FCS, 2 mM of glutamine, 100 U/mL of penicillin, and 100 µg/mL of streptomycin sulfate. To maintain P-gp/ABCB1 expression the culture medium for L-MDR1 was supplemented with 0.64 µM of vincristine. One day before seeding the cells for the growth inhibition assay, both cell lines were fed with a vincristine-free culture medium. Growth inhibition assays in LS180 cells were conducted to determine suitable maximum concentrations for the induction assay without profound antiproliferative effects. Proliferation was quantified by crystal violet staining of the surviving cells as described previously. […] Growth inhibition assays in MDCKII, and their MRP2 or BCRP over-expressing counterparts ([…], MDCKII-BCRP) and in LLC-PK1 and the corresponding P-gp over-expressing cell line L-MDR1 were conducted to evaluate whether venetoclax sustains its efficacy in MDR cell lines.

A short description of data set [6]: Intestinal concentration by FDA formula. The settings on record: after a dose of 250 mg, according to FDA formula (dose/250 mL). How it is done:
Thus, the question of whether these effects will also play a role in the clinical situation arises. Therapeutic plasma concentrations of venetoclax reach about 5 µM [3, 34, 35], a similar range to concentrations inhibiting drug transporters and CYP in vitro. […] Thus, even the moderate inhibition of P-gp by venetoclax might be relevant and should be tested in vivo.

On the set-up of data set [7]: method as in PMID 26639348, PMID 22184378, PMID 27520294. The conditions noted are these: cited from earlier work.

T1 sequence (Q9UNQ0 whole entry): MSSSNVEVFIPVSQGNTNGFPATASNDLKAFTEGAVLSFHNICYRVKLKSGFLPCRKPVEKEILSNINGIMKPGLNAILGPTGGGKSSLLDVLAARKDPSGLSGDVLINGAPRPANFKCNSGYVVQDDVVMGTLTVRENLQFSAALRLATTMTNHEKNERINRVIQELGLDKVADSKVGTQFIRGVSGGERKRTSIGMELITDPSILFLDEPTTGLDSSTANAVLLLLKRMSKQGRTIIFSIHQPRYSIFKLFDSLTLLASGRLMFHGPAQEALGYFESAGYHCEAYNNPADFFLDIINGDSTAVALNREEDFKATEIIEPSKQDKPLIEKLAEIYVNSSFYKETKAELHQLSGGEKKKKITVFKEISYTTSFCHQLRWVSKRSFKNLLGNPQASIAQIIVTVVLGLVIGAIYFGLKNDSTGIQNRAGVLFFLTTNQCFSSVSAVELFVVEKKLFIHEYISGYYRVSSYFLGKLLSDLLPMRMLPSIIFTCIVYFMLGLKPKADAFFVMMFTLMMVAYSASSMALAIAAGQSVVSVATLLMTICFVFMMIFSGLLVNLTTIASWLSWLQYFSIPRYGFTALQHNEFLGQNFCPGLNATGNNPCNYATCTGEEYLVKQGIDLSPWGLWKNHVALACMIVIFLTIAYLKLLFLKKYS
T3 sequence (P08684 whole entry): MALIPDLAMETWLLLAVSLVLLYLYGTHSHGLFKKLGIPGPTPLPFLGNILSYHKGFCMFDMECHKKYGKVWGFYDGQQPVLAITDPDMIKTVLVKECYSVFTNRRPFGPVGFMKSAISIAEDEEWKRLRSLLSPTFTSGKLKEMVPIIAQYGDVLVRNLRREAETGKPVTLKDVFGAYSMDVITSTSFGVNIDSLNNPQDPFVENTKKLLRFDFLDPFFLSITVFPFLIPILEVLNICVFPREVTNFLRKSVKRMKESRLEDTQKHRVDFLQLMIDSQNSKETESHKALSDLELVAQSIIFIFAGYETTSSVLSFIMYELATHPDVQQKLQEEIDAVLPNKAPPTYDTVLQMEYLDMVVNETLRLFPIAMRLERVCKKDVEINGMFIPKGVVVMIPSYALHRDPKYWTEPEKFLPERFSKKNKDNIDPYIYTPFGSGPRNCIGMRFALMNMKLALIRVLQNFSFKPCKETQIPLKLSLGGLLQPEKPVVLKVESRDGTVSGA
T2 sequence (Q9NPD5 whole entry): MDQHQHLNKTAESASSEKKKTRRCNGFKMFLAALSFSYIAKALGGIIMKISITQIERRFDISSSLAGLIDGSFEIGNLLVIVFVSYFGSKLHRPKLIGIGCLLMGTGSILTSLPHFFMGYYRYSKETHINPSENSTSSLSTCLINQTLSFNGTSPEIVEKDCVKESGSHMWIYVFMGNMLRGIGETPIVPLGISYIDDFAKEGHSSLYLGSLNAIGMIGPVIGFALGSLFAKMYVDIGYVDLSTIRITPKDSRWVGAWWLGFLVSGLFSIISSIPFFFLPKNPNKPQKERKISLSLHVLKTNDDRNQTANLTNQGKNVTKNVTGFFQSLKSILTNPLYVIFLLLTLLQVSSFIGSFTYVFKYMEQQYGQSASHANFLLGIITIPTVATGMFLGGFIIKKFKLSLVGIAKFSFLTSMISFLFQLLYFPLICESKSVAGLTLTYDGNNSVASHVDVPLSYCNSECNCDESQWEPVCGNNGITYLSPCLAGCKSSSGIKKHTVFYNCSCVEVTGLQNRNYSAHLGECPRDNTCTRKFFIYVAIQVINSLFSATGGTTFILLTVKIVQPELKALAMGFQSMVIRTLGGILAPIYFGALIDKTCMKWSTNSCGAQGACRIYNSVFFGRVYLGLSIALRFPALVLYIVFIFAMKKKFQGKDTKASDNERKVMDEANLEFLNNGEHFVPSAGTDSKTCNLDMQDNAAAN

As for `CC1(C)CCC(CN2CCN(c3ccc(C(=O)NS(=O)(=O)c4ccc(NCC5CCOCC5)c([N+](=O)[O-])c4)c(Oc4cnc5[nH]ccc5c4)c3)CC2)=C(c2ccc(Cl)cc2)C1` [Venetoclax], the IC50 was 30 ± 3.7 µM in data set [1]; 19.6 ± 7.3 µM in data set [2]; 26 ± 9.6 µM in data set [3]; 7.2 ± 3.2 µM in data set [4]; 25.7 ± 4.1 µM in data set [5] (with LY335979 (P-gp inhibitor), L-MDR1 + LY335979 (1 µM)); 53.1 ± 4.1 µM in data set [5] (L-MDR1, P-gp over-expressing). The “concentration reached in the intestine” value in data set [6] is “about 1 mM”. In data set [7], the Therapeutic plasma concentrations result is recorded as “about 5 µM”.
